Where “and” joins values, the source holds several entries; their conditions need not be identical. Identical values can stand only once. Calls of active or inactive are those of the source.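 How the source made its calls: active means compounds giving half or more protection of infected cells from virus-caused growth loss, again on retest; inactive means the rest.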 Where a SMILES comes first, the peptide text is derived from it. The star is where a group is joined. Cbz = O=C(OCc1ccccc1)*; OBn = c1ccc(CO*)cc1

For this test, the system named is CEM cells HIV-1 protection, formazan growth assay. Put plainly: NCI AIDS Antiviral Assay. The settings on record: for IC50: measured here: growth of uninfected CEM cells. As to the method: The ability of compounds to protect human CEM cells from HIV-1 infection is measured as a screen for new compounds capable of inhibiting the HIV virus. Five concentrations of drug were tested on uninfected and infected cells and cell growth was measured using a soluble formazan assay. […] Compounds that provided at least 50% protection were retested. Compounds that provided at least 50% protection on retest were listed as moderately active. Compounds that reproducibly provided 100% protection were listed as confirmed active. […] Note that the inability to provide protection could be due to toxicity.

Usually EC50 stands for the concentration needed to bring the measured effect to its halfway point. Usually IC50 stands for the concentration at which inhibition is half-maximal. Read a low IC50 as greater potency. For `COC1=CC(=O)[C@]2(C)[C@H](C1=O)C(C)[C@H]2c1ccccc1` (stereo partly specified), the EC50 was over 95.5 µM and the IC50 was over 95.5 µM. In the case of `N#Cc1ccc(Cc2ccccn2)cc1Cl`, the outcome was inactive. In the case of `COc1cc2c(c(OC)c1OC)-c1ccc(SC)c(=O)cc1[C@@H](NC(=O)C(F)(F)F)CC2`, the EC50 was over 75.9 µM and the half-inhibitory concentration (IC50) is 0.0245 µM. Turning to `O=c1c2c3c(sc2nc2n1N=CN(c1ccc(F)cc1)C2)CCCC3`, the EC50 is over 200 µM and the IC50 was over 200 µM.

`O=c1cc2oc3cc(O)c(O)cc3c(-c3ccccc3)c-2cc1O`: the 50% effective concentration (EC50) is over 200 µM; the half-maximal inhibitory concentration (IC50) is 39.8 µM and 83.2 µM. On to `O=P1(c2ccccc2)c2ccccc2-c2ccccc21`, for which the EC50 is over 200 µM and the IC50 was found to be 102 µM. In the same order, the values of `O=C(N/C(=C\c1ccccc1)C1Nc2ccccc2C(=O)O1)c1ccccc1` (stereo unspecified) are over 200 µM and 17.4 µM.

For the compound `COc1ccc2c(c1OC)CN(C)CCc1cc3c(cc1C(=O)C2)OCO3`, the EC50 was over 355 µM and the half-maximal inhibitory concentration (IC50) was determined as 288 µM.

For the compound `CC1=NN(C(=O)Cc2ccccc2)C(=O)/C1=C\c1ccc([N+](=O)[O-])cc1`, the EC50 was over 53.7 µM and the IC50 was over 53.7 µM.

`NN1CCOC1=O`: the EC50 is over 200 µM and the IC50 is over 200 µM. As to `O=c1[nH]c2ccc(CC(=S)N3CCOCC3)cc2s1`, the EC50 was over 200 µM and the IC50 is over 200 µM. Consider `NCCCCCS(=O)(=O)O`, for which the EC50 is over 9330 µM and the concentration for half-maximal inhibition (IC50) was over 9330 µM. For the compound `CC(C)Sc1nc(C#N)cc2c1CCCC2`, the EC50 was over 200 µM and the half-inhibitory concentration (IC50) is 57.5 µM. In the same order, the values of `CN(C)c1ccc(/C=C/c2cc[n+]3cc(-c4ccccc4)sc3n2)cc1` are over 1.51 µM and 0.324 µM. Taken in the same sequence, the figures for `OCC1(CO)CSSC1` were 132 µM and 1510 µM.

`Cc1occc1C(=S)Nc1ccc(Cl)c(C(=O)OC(C(C)C)C(C)C)c1`: the EC50 is 0.0912 µM and the half-inhibitory concentration (IC50) turned out to be 13.2 µM. Taken in the same sequence, the figures for `[N-]=[N+]=Nc1c(N2CCOCC2)c(Cl)nc2ccccc12` were over 200 µM and 55 µM. As for `COc1ccc(OCc2nc3cc(C(F)(F)F)ccc3nc2-c2ccccc2)cc1`, the EC50 is over 200 µM and the half-maximal inhibitory concentration (IC50) is over 200 µM. Turning to `O=C(O)c1ccccc1P12(OC(=O)c3ccccc31)OC(=O)c1ccccc12`, the EC50 was over 209 µM and the 50% inhibitory concentration (IC50) amounted to 170 µM. `CC(CNC(=O)c1ccccc1)(CNC(=O)c1ccccc1)[N+](=O)[O-]`: the outcome was inactive.

As for `COC1/C=C\OC2(C)Oc3c(C)c(O)c4c(O)c(cc(OCC(=O)N(C)Cc5ccccc5)c4c3C2=O)NC(=O)/C(C)=C\C=C/C(C)C(O)C(C)C(O)C(C)C(OC(C)=O)C1C` (stereo unspecified), the EC50 was over 200 µM and the IC50 is 39.8 µM.

As for `COc1ccc(-n2c(SCC(=O)NC(=O)Nc3ccccc3)nc3c(Br)cc(Br)cc3c2=O)cc1`, the EC50 is over 200 µM and the 50% inhibitory concentration (IC50) was over 200 µM. Regarding `Cc1nc(CC#N)n[nH]1`, the EC50 is over 200 µM and the half-inhibitory concentration (IC50) is over 200 µM. For the compound `COc1cc(N=Nc2cc(NC(C)=O)c(N=Nc3ccc(C(=O)O)cc3)cc2S(=O)(=O)O)c(C)cc1N=Nc1ccc(NC(=O)c2ccc(N)cc2)cc1C`, the concentration giving a half-maximal response (EC50) was 14.1 µM and the IC50 was over 100 µM. Turning to `Cn1c(=S)sc2nc3ccccc3n2c1=S`, the EC50 is over 200 µM and the IC50 worked out at 10.7 µM. In the same order, the values of `O=C(O)C(Cc1ccccc1)NC(=O)C1CCCN1C(=O)OCc1ccccc1` (stereo not drawn) (Cbz-Pro-Phe-OH; configuration not given here) are over 631 µM and over 631 µM. Taken in the same sequence, the figures for `COc1ccc2c(c1)OC(OC)(c1ccc(OC)c(OC)c1)C(O)(OC)C2=O` (stereo unspecified) were over 200 µM and 11.2 µM.

Turning to `O=C1OC2(O)c3ccccc3C(=O)N2N2CCCC12` (stereo unspecified), the EC50 was over 692 µM and the IC50 was over 692 µM. Turning to `CN1C(=O)C(Cl)(C#N)C(c2ccccc2)N(C)C1c1ccccc1` (stereo unspecified), the EC50 is over 200 µM and the 50% inhibitory concentration (IC50) worked out at 8.71 µM. `CCOC(=O)/C(C#N)=C/c1[nH]c(C)c(C)c1C`: the result was inactive. As for `O=C1C=C(Br)C(=O)C(Br)=C1`, the EC50 was over 257 µM and the half-inhibitory concentration (IC50) is 23.4 µM. As to `O=c1cc2c(Cl)cccc2n[nH]1`, the EC50 is over 195 µM and the IC50 is over 195 µM.

For `CC(=O)Nc1ccc(C(=O)NN2C(=O)C(Cl)C2/C=C/c2ccccc2)cc1` (stereo unspecified), the EC50 was 135 µM and the IC50 was found to be 166 µM. Take `C[C@]12CCC3[C@@H](CC[C@@H]4/C(=N\O)C(=O)/C(=N\O)C[C@]34C)C1C/C(=N\O)C2=O` (stereo partly specified): the result was inactive. Take `Brc1ccc(N=Nc2ccc3ccccc3n2)cc1`: the EC50 was over 93.3 µM and the 50% inhibitory concentration (IC50) is 91.2 µM.

As to `CCOC(=O)c1c[nH]cc1-c1cn(S(=O)(=O)c2ccccc2)cc1C`, the EC50 is over 200 µM and the half-inhibitory concentration (IC50) was found to be 50.1 µM. In the case of `CCOC(=O)CCC(NC(=O)OCc1ccccc1)C(=O)NNC(=O)OC(C)(C)C` (stereo unspecified), the EC50 was over 200 µM and the IC50 is over 200 µM. Regarding `CCCCOC(=O)C(O)Cc1ccoc1` (stereo unspecified), the EC50 is over 200 µM and the IC50 was over 200 µM. With `CCCCCC(=O)Cc1cc(O)cc2c1C(=O)Oc1cc(O)c(C(=O)O)c(CCCCC)c1O2`, the EC50 is over 200 µM and the concentration for half-maximal inhibition (IC50) came to 33.9 µM.

Turning to `NC(CCC(=O)OCc1ccccc1)C(=O)NC(CCC(=O)OCc1ccccc1)C(=O)O` (stereo unspecified) (H-Glu(OBn)-Glu(OBn)-OH; configuration not given here), the EC50 was over 1000 µM and the concentration for half-maximal inhibition (IC50) is over 1000 µM. With `CN(C)CCCNC(=O)c1cc(NC(=O)c2cc(NC(=O)c3cc(NC(=O)CCCn4ccc(CO)c4CO)cn3C)cn2C)cn1C`, the EC50 is over 20 µM and the concentration for half-maximal inhibition (IC50) was 0.38 µM. For the compound `Cn1c(=O)c2c(nc3n(CCCCl)c(=O)ccn23)n(C)c1=O`, the EC50 was over 200 µM and the IC50 is over 100 µM. In the same order, the values of `Fc1ccccc1C1SCc2nc3ccccc3n21` (stereo unspecified) are 11 µM and 38.9 µM. Taken in the same sequence, the figures for `O=c1[nH]ccc(CNC23CC4CC(CC(C4)C2)C3)c1O` were over 45.7 µM and over 45.7 µM. Turning to `O=C(O)CN(c1ccccc1)S(=O)(=O)c1ccccc1[N+](=O)[O-]`, the result was inactive. In the case of `C=C1c2nc3ccccc3n2C=C(c2ccc(OC)cc2)N1c1ccc(OC)cc1`, the EC50 is over 200 µM and the 50% inhibitory concentration (IC50) came out at 33.1 µM.

Consider `Cc1cc(NS(=O)(=O)c2ccc(NC(=O)c3ccc4nc5ccccc5c(Nc5ccc(S(=O)(=O)N=C(N)N)cc5)c4c3)cc2)no1`, for which the EC50 is over 75.9 µM and the IC50 was determined as 24.5 µM. Taken in the same sequence, the figures for `C=CCC(/C=C\CC)(C(=O)O)C(=O)O` were over 661 µM and over 661 µM. As for `COC(Cc1cc(C(O)(c2ccc(C(C)(C)C)cc2)c2cc(CC(OC)(c3cc(C(OC)(c4ccc(C(C)(C)C)cc4)c4ccc(C(C)(C)C)cc4)c(C)cc3C)c3cc(C(OC)(c4ccc(C(C)(C)C)cc4)c4ccc(C(C)(C)C)cc4)c(C)cc3C)c(C)cc2C)c(C)cc1C)(c1cc(C(OC)(c2ccc(C(C)(C)C)cc2)c2ccc(C(C)(C)C)cc2)c(C)cc1C)c1cc(C(OC)(c2ccc(C(C)(C)C)cc2)c2ccc(C(C)(C)C)cc2)c(C)cc1C`, the result was inactive.

On to `Oc1cc(O)c2c(c1)O[C@H](c1cc(O)c(O)c(O)c1)[C@@H](O)C2`, for which the EC50 was over 200 µM and the IC50 came out at 0.603 µM. In the same order, the values of `N#CC(NCCc1ccccc1)c1ccc(OCCCCCCCCCCOc2ccc(C(C#N)NCCc3ccccc3)cc2)cc1` (stereo unspecified) are over 50.1 µM and 22.9 µM. For `CNc1ncnc2c1cnn2CCCCO`, the EC50 is over 200 µM and the concentration for half-maximal inhibition (IC50) was over 200 µM. For the compound `O=[N+]([O-])c1ccc(-c2noc(-c3ccc(Cl)cc3)c2C2=NCCN2)cc1`, the EC50 is over 14.1 µM and the half-inhibitory concentration (IC50) is over 14.1 µM. With `Cc1c(NC(=S)Nc2ccc(Cl)cc2)c(=O)n(-c2ccccc2)n1C`, the EC50 is over 200 µM and the half-maximal inhibitory concentration (IC50) is over 200 µM. Regarding `CCOC(=O)C1(O)N=C(c2ccccc2)c2ccccc2-n2cccc21` (stereo unspecified), the EC50 is over 200 µM and the IC50 was over 200 µM. As to `C=C1[C@H]2CC[C@H]3C45CO[C@@H](CC4=O)C(C)(C)C5=C(O)C(=O)C3(C2)[C@@H]1OC(C)=O`, the EC50 is over 18.6 µM and the half-maximal inhibitory concentration (IC50) was over 18.6 µM.

As for `CCCCNC(=O)/C(=C/c1cccc(N(CC)CC)c1)NC(=O)c1ccccc1`, the EC50 was over 200 µM and the concentration for half-maximal inhibition (IC50) is 25.1 µM.

Regarding `CCOC(=O)C(=O)NC12CC3CC(CC(C3)C1)C2`, the EC50 is over 724 µM and the IC50 was over 724 µM.

`COC(=O)/C=C/c1ccc2c(c1)CC1(Cc3ccccc3C1)C2`: the EC50 was over 200 µM and the IC50 is over 200 µM.

Turning to `CC1(C)CC(Nc2ccc(Nc3ccccc3)cc2)CC(C)(C)N1`, the EC50 was over 562 µM and the IC50 was determined as 4.27 µM. In the same order, the values of `BrCCCCCOc1ccc(-c2c3ccccc3c(-c3ccc(OCCCCCBr)cc3)c3ccccc23)cc1` are over 100 µM and over 100 µM. In the same order, the values of `CS(=O)(=O)c1ccc(-c2cc(-c3ccc(S(C)(=O)=O)cc3)[n+](-c3cc(-c4ccc(S(C)(=O)=O)cc4)c([O-])c(-c4ccc(S(C)(=O)=O)cc4)c3)c(-c3ccc(S(C)(=O)=O)cc3)c2)cc1` are over 7.59 µM and over 7.59 µM. In the case of `COc1ccc(C(=O)c2ccc(OC)c(S(=O)(=O)OC)c2)cc1S(=O)(=O)OC`, the EC50 was over 43.7 µM and the concentration for half-maximal inhibition (IC50) is over 43.7 µM. Regarding `COC(=O)[C@@]12CCCC(=O)[C@@H]1[C@H]1CCCC[C@H]12`, the EC50 was over 200 µM and the IC50 is 110 µM. In the same order, the values of `NNS(=O)(=O)c1ccc(OCC(=O)O)cc1` are over 200 µM and 182 µM. Consider `CC1=NC(C(C)C)C(=O)O1` (stereo unspecified), for which the EC50 is over 891 µM and the IC50 was over 891 µM.

For the origin of these results see PubChem BioAssay AID179 (DTP/NCI, 2004).
